Structures can show the parent of a compound that is named as a salt. A value given as a limit tells only on which side of the number the result lay.

This is an account of results in patent publication US7932271B2, “Heterocyclic methyl sulfone derivative” (Daiichi Pharmaceutical Co., Ltd., priority 2003, dated 2011).

Turning to `CN1CCN(C(=O)CCc2cnc(C(c3cc(F)ccc3F)S(=O)(=O)c3ccc(Cl)cc3)c(F)c2)CC1.Cl` (centres unmarked), the melting point lay within 243 to 245 °C. Compound `O=c1oc2ccccc2c(O)c1C(Sc1ccc(Cl)cc1)c1cc(F)ccc1F` (centres unmarked) had a melting point of 146 to 147 °C.

In the case of `Cl.O=S(=O)(c1ccc(Cl)cc1)C(c1cc(F)ccc1F)C1CCNCC1` (centres unmarked), the melting point lay in the range of 184 to 190 °C. Consider `NCCNC(=O)c1ccc(C(c2cc(F)ccc2F)S(=O)(=O)c2ccc(Cl)cc2)nc1` (centres unmarked) (as salt: hydrochloride) [Example 139, N-(2-Aminoethyl)-6-[(4-chlorophenylsulfonyl)(2,5-difluorophenyl)methyl]nicotinamide], for which the melting point is > 250 °C (dec.).

As to `NCCNC(=S)c1ccc(C(c2cc(F)ccc2F)S(=O)(=O)c2ccc(Cl)cc2)nc1` (centres unmarked) (as salt: hydrochloride) [Example 142, N-(2-Aminoethyl)-6-[(4-chlorophenylsulfonyl)(2,5-difluorophenyl)methyl]thionicotinamide], the melting point was 164 to 166 °C. The compound `NCCCNc1cc(C(c2cc(F)ccc2F)S(=O)(=O)c2ccc(Cl)cc2)c(Cl)cn1` (centres unmarked) (as salt: hydrochloride) [Example 173, N-[5-Chloro-4-[(4-chlorophenylsulfonyl)-(2,5-difluorophenyl)methyl]pyridin-2-yl]propane-1,3-diamine dihydrochloride] yielded a melting point of 193 to 195 °C. For the compound `NCCNc1cc(C(c2cc(F)ccc2F)S(=O)(=O)c2ccc(Cl)cc2)c(Cl)cn1` (centres unmarked) (as salt: hydrochloride) [Example 193, N-[5-Chloro-4-[(4-chlorophenylsulfonyl)-(2,5-difluorophenyl)methyl]pyridin-2-yl]ethane-1,2-diamine dihydrochloride], the melting point lay within 163 to 166 °C. In turn, `O=S(=O)(c1ccc(Cl)cc1)C(c1cc(F)ccc1F)c1cc(Cl)ncc1Cl` (centres unmarked) (hydrate or solvate) [Example 57, 2,5-Dichloro-4-[(4-chlorophenylsulfonyl)-(2,5-difluorophenyl)methyl]pyridine 0.5 hydrate] showed a melting point of 147 to 148 °C. For the compound `O=C(O)CCNc1cc(C(c2cc(F)ccc2F)S(=O)(=O)c2ccc(Cl)cc2)c(Cl)cn1` (centres unmarked) (hydrate or solvate) [Example 155, 3-[[5-Chloro-4-[(4-chlorophenylsulfonyl)-(2,5-difluorophenyl)methyl]pyridin-2-yl]amino]propionic acid], the melting point is 200 to 205 °C. With `O=S(=O)(c1ccc(Cl)cc1)C(c1ccncc1)C1CCCC1` (centres unmarked) [Example 2, 4-[(4-Chlorophenylsulfonyl)(cyclopentyl)methyl]pyridine] the figure was 133 to 135 °C. `O=S(=O)(c1ccc(Cl)cc1)C(c1ccncc1)C1CCOCC1` (centres unmarked) [Example 3, 4-[(4-Chlorophenylsulfonyl)(tetrahydropyran-4-yl)methyl]pyridine] yielded a melting point of 208 to 209 °C. The same measure for `CN1CCC(C(c2ccncc2)S(=O)(=O)c2ccc(Cl)cc2)CC1` (centres unmarked) [Example 5, 4-[(4-Chlorophenylsulfonyl)(1-methylpiperidin-4-yl)methyl]pyridine]: 176 to 177 °C; for `O=S(=O)(c1ccc(Cl)cc1)C(c1ccccn1)c1cc(F)ccc1F` (centres unmarked) [Example 13, 2-[[(4-Chlorophenyl)sulfonyl]-(2,5-difluorophenyl)methyl]pyridine]: 171 to 172 °C. The compound `Cc1cccnc1C(c1cc(F)ccc1F)S(=O)(=O)c1ccc(Cl)cc1` (centres unmarked) [Example 14, 2-[[(4-Chlorophenyl)sulfonyl]-(2,5-difluorophenyl)methyl]-3-methylpyridine] returned a melting point of 142 to 143 °C. In turn, `Cc1ccc(C(c2cc(F)ccc2F)S(=O)(=O)c2ccc(Cl)cc2)nc1` (centres unmarked) [Example 15, 2-[[(4-Chlorophenyl)sulfonyl]-(2,5-difluorophenyl)methyl]-5-methylpyridine] registered a melting point of 159 to 160 °C. As for `Cc1ccnc(C(c2cc(F)ccc2F)S(=O)(=O)c2ccc(Cl)cc2)c1` (centres unmarked) [Example 16, 2-[[(4-Chlorophenyl)sulfonyl]-(2,5-difluorophenyl)methyl]-4-methylpyridine], the melting point was in the range of 116 to 117 °C. `COc1cccnc1C(c1cc(F)ccc1F)S(=O)(=O)c1ccc(Cl)cc1` (centres unmarked) [Example 17, 2-[[(4-Chlorophenyl)sulfonyl]-(2,5-difluorophenyl)methyl]-3-methoxypyridine] registered a melting point of 184 to 185 °C. For the compound `C=CCOc1cccnc1C(c1cc(F)ccc1F)S(=O)(=O)c1ccc(Cl)cc1` (centres unmarked) [Example 18, 3-Allyloxy-2-[[(4-chlorophenyl)sulfonyl]-(2,5-difluorophenyl)methyl]pyridine], the melting point was 119 to 120 °C. With `O=S(=O)(c1ccc(Cl)cc1)C(c1cncnc1)c1cc(F)ccc1F` (centres unmarked) [Example 21, 5-[[(4-Chlorophenyl)sulfonyl]-(2,5-difluorophenyl)methyl]pyrimidine] the figure was 136 to 137 °C; with `Cn1c(Cl)cnc1C(c1cc(F)ccc1F)S(=O)(=O)c1ccc(Cl)cc1` (centres unmarked) [Example 29, 2-[[(4-Chlorophenyl)sulfonyl]-(2,5-difluorophenyl)methyl]-1-methyl-5-chloro-1H-imidazole], 179 to 180 °C.

Regarding `O=S(=O)(c1ccc(Cl)cc1)C(c1nccs1)c1cc(F)ccc1F` (centres unmarked) [Example 30, 2-[[(4-Chlorophenyl)sulfonyl]-(2,5-difluorophenyl)methyl]thiazole], the melting point lay within 163 to 164 °C. Turning to `COc1ccc(-n2ccnc2C(c2cc(F)ccc2F)S(=O)(=O)c2ccc(Cl)cc2)cc1` (centres unmarked) [Example 31, 2-[[(4-Chlorophenyl)sulfonyl]-(2,5-difluorophenyl)methyl]-1-(4-methoxyphenyl)-1H-imidazole], the melting point was in the range of 150 to 151 °C. For `O=S(=O)(c1ccc(Cl)cc1)C(c1cc(F)ccc1F)C1CCOCC1` (centres unmarked) [Example 34, 4-[[(4-Chlorophenyl)sulfonyl](2,5-difluorophenyl)methyl]tetrahydropyrane], the melting point lay in the range of 150 to 152 °C. In turn, `O=S(=O)(c1ccc(Cl)cc1)C(c1cc(F)ccc1F)C1CCSCC1` (centres unmarked) [Example 35, 4-[[(4-Chlorophenyl)sulfonyl](2,5-difluorophenyl)methyl]tetrahydrothiopyrane] gave a melting point of 150 to 152 °C.

`CC(C)(C)OC(=O)N1CCC(C(c2cc(F)ccc2F)S(=O)(=O)c2ccc(Cl)cc2)CC1` (centres unmarked) [Example 37, t-Butyl 4-[[(4-chlorophenyl)sulfonyl](2,5-difluorophenyl)methyl]-1-piperidinecarboxylate] yielded a melting point of 193 to 196 °C. Turning to `O=S(=O)(Cc1ccc(C(c2cc(F)ccc2F)S(=O)(=O)c2ccc(Cl)cc2)nc1)c1ccc(Cl)cc1` (centres unmarked) [Example 40, 2-[(4-Chlorophenylsulfonyl)-(2,5-difluorophenyl)methyl]-5-[(4-chlorophenylsulfonyl)methyl]pyridine], the melting point was 186 to 187 °C.

As to `Fc1ccc(F)c(C(Sc2ccc(Cl)cc2)c2ccc(C3OCCO3)cn2)c1` (centres unmarked) [Example 41, 2-[(4-Chlorophenylthio)-(2,5-difluorophenyl)methyl]-5-(1,3-dioxolan-2-yl)pyridine], the melting point is 70 to 73 °C. In the case of `COC(=O)/C=C/c1ccc(C(c2cc(F)ccc2F)S(=O)(=O)c2ccc(Cl)cc2)nc1` (centres unmarked) [Example 44, Methyl 3-[6-[(4-chlorophenylsulfonyl)-(2,5-difluorophenyl)methyl]pyridin-3-yl]acrylate], the melting point was in the range of 145 to 146 °C.

In turn, `COC(=O)CCc1ccc(C(c2cc(F)ccc2F)S(=O)(=O)c2ccc(Cl)cc2)nc1` (centres unmarked) [Example 45, Methyl 3-[6-[(4-chlorophenylsulfonyl)-(2,5-difluorophenyl)methyl]pyridin-3-yl]propionate] returned a melting point of 121 to 123 °C. `O=S(=O)(c1ccc(Cl)cc1)C(c1ccc(CN2CCCCC2)cn1)c1cc(F)ccc1F` (centres unmarked) [Example 48, 2-[(4-Chlorophenylsulfonyl)-(2,5-difluorophenyl)methyl]-5-(piperidin-1-ylmethyl)pyridine] returned a melting point of 113 to 114 °C. As to `O=S(=O)(c1ccc(Cl)cc1)C(c1ccc(CN2CCOCC2)cn1)c1cc(F)ccc1F` (centres unmarked) [Example 49, 4-[[6-[(4-Chlorophenylsulfonyl)-(2,5-difluorophenyl)methyl]pyridin-3-yl]methyl]morpholine], the melting point lay in the range of 120 to 121 °C. In turn, `O=C(O)c1ccc(C(c2cc(F)ccc2F)S(=O)(=O)c2ccc(Cl)cc2)nc1` (centres unmarked) [Example 50, [6-[(4-Chlorophenylsulfonyl)-(2,5-difluorophenyl)methyl]pyridin-3-yl]carboxylic acid] showed a melting point of more than 230 °C.

In turn, `O=S(=O)(c1ccc(Cl)cc1)C(c1ccc[n+]([O-])c1)c1cc(F)ccc1F` (centres unmarked) [Example 51, 3-[(4-Chlorophenylsulfonyl)-(2,5-difluorophenyl)methyl]pyridine-N-oxide] gave a melting point of 183 to 184 °C. Turning to `O=S(=O)(c1ccc(Cl)cc1)C(c1cc[n+]([O-])cc1)c1cc(F)ccc1F` (centres unmarked) [Example 52, 4-[(4-Chlorophenylsulfonyl)-(2,5-difluorophenyl)methyl]pyridine-N-oxide], the melting point is 211 to 212 °C. With `Fc1ccc(F)c(C(Sc2ccc(Cl)cc2)c2ccncc2Cl)c1` (centres unmarked) [Example 53, 3-Chloro-4-[(4-chlorophenylthio)-(2,5-difluorophenyl)methyl]pyridine] the figure was 70 to 72 °C. With `Fc1ccc(F)c(C(Sc2ccc(Cl)cc2)c2cc(Cl)ncc2Cl)c1` (centres unmarked) [Example 54, 2,5-Dichloro-4-[(4-chlorophenylthio)-(2,5-difluorophenyl)methyl]pyridine], the melting point is 128 to 129 °C. For the compound `CN(C)S(=O)(=O)NCc1ccc(C(c2cc(F)ccc2F)S(=O)(=O)c2ccc(Cl)cc2)nc1` (centres unmarked) [Example 68, N-[[6-[(4-Chlorophenylsulfonyl)(2,5-difluorophenyl)methyl]pyridin-3-yl]methyl]-N′,N′-dimethylsulfamide], the melting point lay within 177 to 178 °C.

For `CCOC(=O)C(=O)NCc1ccc(C(c2cc(F)ccc2F)S(=O)(=O)c2ccc(Cl)cc2)nc1` (centres unmarked) [Example 69, Ethyl 2-[[6-[(4-Chlorophenylsulfonyl)(2,5-difluorophenyl)methyl]pyridin-3-yl]methylamino]-2-oxoacetate], the melting point was 193 to 194 °C.

As usually defined, the melting point is the temperature of the solid-liquid transition.
